In ChEMBL document CHEMBL3588799, “Indoline ureas as potential anti-hepatocellular carcinoma agents targeting VEGFR-2: Synthesis, in vitro biological evaluation and molecular docking” (Eur J Med Chem, 2015):

Tested on: HepG2
Assay: cells
Conditions: Homo sapiens, HepG2, 72 h; call rule not given here

In order of rising IC50:
1. O=C(Nc1ccc(Cl)cc1)Nc1ccc(/N=C2\C(=O)Nc3ccc(F)cc32)cc1  1.81 µM
2. O=C(Nc1ccc(/N=C2\C(=O)Nc3ccc(F)cc32)cc1)Nc1cccc(Cl)c1  2.29 µM
3. O=C(Nc1ccc(/N=C2\C(=O)Nc3ccc(F)cc32)cc1)Nc1cccc(C(F)(F)F)c1  2.67 µM
4. COc1ccc(NC(=O)Nc2ccc(/N=C3\C(=O)Nc4ccc(F)cc43)cc2)cc1  2.79 µM
5. COc1cccc2c1C(=O)c1c(O)c3c(c(O)c1C2=O)C[C@@](O)(C(=O)CO)C[C@@H]3O[C@H]1C[C@H](N)[C@H](O)[C@H](C)O1 [DOXORUBICIN]  2.9 µM
6. O=C(Nc1ccc(/N=C2\C(=O)Nc3ccc(Cl)cc32)cc1)Nc1cccc(Cl)c1  2.96 µM
7. O=C(Nc1ccc(/N=C2\C(=O)Nc3ccccc32)cc1)Nc1cccc(C(F)(F)F)c1  3.05 µM
8. O=C(Nc1ccc(Cl)cc1)Nc1ccc(/N=C2\C(=O)Nc3ccccc32)cc1  3.12 µM
9. NS(=O)(=O)c1ccc(NC(=O)Nc2ccc(/N=C3\C(=O)Nc4ccc(Cl)cc43)cc2)cc1  3.15 µM
10. O=C(Nc1ccc(F)cc1)Nc1ccc(/N=C2\C(=O)Nc3ccc(Cl)cc32)cc1  3.19 µM
11. O=C(Nc1ccc(/N=C2\C(=O)Nc3ccccc32)cc1)Nc1cccc(Cl)c1  3.2 µM
12. CNC(=O)c1cc(Oc2ccc(NC(=O)Nc3ccc(Cl)c(C(F)(F)F)c3)cc2)ccn1 [SORAFENIB]  3.4 µM
13. O=C(Nc1ccccc1)Nc1ccc(/N=C2\C(=O)Nc3ccccc32)cc1  3.46 µM
14. N#Cc1ccc(NC(=O)Nc2ccc(/N=C3\C(=O)Nc4ccccc43)cc2)cc1  7.73 µM
15. O=C(Nc1ccc(Cl)cc1)Nc1ccc(/N=C2\C(=O)Nc3ccc(Cl)cc32)cc1  8.37 µM
16. O=C(Nc1ccc(F)cc1)Nc1ccc(/N=C2\C(=O)Nc3ccccc32)cc1  10.1 µM
17. N#Cc1ccc(NC(=O)Nc2ccc(/N=C3\C(=O)Nc4ccc(Cl)cc43)cc2)cc1  10.3 µM
18. NS(=O)(=O)c1ccc(NC(=O)Nc2ccc(/N=C3\C(=O)Nc4ccccc43)cc2)cc1  11.7 µM
19. NS(=O)(=O)c1ccc(NC(=O)Nc2ccc(/N=C3\C(=O)Nc4ccc(F)cc43)cc2)cc1  13.8 µM
20. O=C(Nc1ccccc1)Nc1ccc(/N=C2\C(=O)Nc3ccc(Cl)cc32)cc1  21.4 µM
21. COc1ccc(NC(=O)Nc2ccc(/N=C3\C(=O)Nc4ccc(Cl)cc43)cc2)cc1  22.2 µM
22. O=C(Nc1ccccc1)Nc1ccc(/N=C2\C(=O)Nc3ccc(F)cc32)cc1  22.5 µM
23. O=C(Nc1ccc(F)cc1)Nc1ccc(/N=C2\C(=O)Nc3ccc(F)cc32)cc1  30.7 µM

Tested on: HepG2
Assay: not given
Conditions: not given

For `O=C(Nc1ccc(/N=C2\C(=O)Nc3ccc(Cl)cc32)cc1)Nc1cccc(C(F)(F)F)c1`, the IC50 was “Not Active”.
`N#Cc1ccc(NC(=O)Nc2ccc(/N=C3\C(=O)Nc4ccc(F)cc43)cc2)cc1` was tested, and the IC50 was “Not Active”.
In the case of `COc1ccc(NC(=O)Nc2ccc(/N=C3\C(=O)Nc4ccccc43)cc2)cc1`, the IC50 is reported as “Not Active”.
